Laboratory results from PMC9697131, “Agomelatine, Ketamine and Vortioxetine Attenuate Energy Cell Metabolism—In Vitro Study” (International Journal of Molecular Sciences, 2022).

How the values were obtained:
[1] = test system: complex IV (cytochrome c oxidase); experiment: Complex IV (cytochrome c oxidase) activity, spectrophotometric; assay type: biochemical; details: pig brain mitochondria, mean ± SD
Protocol: (§1) Pig brains were obtained from a slaughterhouse. Mitochondrial fraction isolation and purification from brain cortex were performed as previously described. Briefly, grey matter from pig brains was homogenized and crude mitochondrial fraction was isolated and then centrifuged on the sucrose gradient to obtain purified mitochondrial fraction. The freshly purified mitochondria were kept on ice until the assays were performed and were used for measurements of the mitochondrial oxygen consumption rate, measurements of ATP and ROS formation. Frozen mitochondria (stored at −70 °C) were used for the following enzyme activity measurements: ETC complexes, citrate synthase (CS) and malate dehydrogenase (MDH) activity.
Ultrasonication and incubation of mitochondria with the tested drugs for 30 min at 30 °C was performed before measurement with a corresponding drug-free control (DMSO) for every measurement. Mitochondrial enzymes activities were determined spectrophotometrically as absorbance using a GENESYS 180 UV-Vis Spectrophotometer (Thermo Fisher Scientific, Waltham, MA, USA).
The medium consisted of KH2PO4, and the reaction was initiated by reduced cyt c. The decrease in absorbance was measured at 550 nm for 3 min. The final protein concentration was 10 µg/mL and final drugs concentrations 10, 50 and 100 µM. Drug-free control (DMSO) was used as a control for each measurement.

[2] = test system: complex II+III-linked ATP kinetics, pig brain mitochondria; experiment: Complex II+III-linked ATP kinetics, bioluminescence; assay type: biochemical; details: 10 μM drug; mean ± SD
Protocol: as §1
The following protocol has been modified and optimized. An ATP Bioluminescence Assay Kit CLS II was used to measure ATP content and kinetics. The luminescence was measured using FluoroMax-3 (Jobin Yvon, Edison, NJ, USA) at 562 nm. Standard curve for ATP determination was prepared from ATP standard in the range from 0 to 600 nM. […]
For ATP kinetics determination MiR05 buffer, mitochondria and drugs were incubated on ice for 20 min and another 10 min at room temperature. Background luminescence was measured. Consequently, the same substrate mixture as mentioned above, and 230 µL of luciferase reagent were added and ATP kinetics was determined by measuring the luminescence for 4 min. […]

SMILES	complex IV activity (relative to control = 100%) ([1]; 10 μM drug) [%]	complex IV activity (relative to control = 100%) ([1]; 50 μM drug) [%]	complex IV activity (relative to control = 100%) ([1]; 100 μM drug) [%]	complex II+III-linked ATP kinetics (relative to control = 100%) [2] [%]
COc1ccc2cccc(CCNC(C)=O)c2c1 [agomelatine]	45.0 ± 3.6	17.9 ± 3.4	12.8 ± 4.1	
Cc1ccc(Sc2ccccc2N2CCNCC2)c(C)c1 [vortioxetine]			9.3 ± 3.8	
CNC1(c2ccccc2Cl)CCCCC1=O (stereo not drawn) [ketamine]			3.9 ± 3.0	84.9 ± 5.9
